The record followed here is ChEMBL document CHEMBL5096192, “Recent advancements in anti-leishmanial research: Synthetic strategies and structural activity relationships” (Eur J Med Chem, 2021).

Values after ≈ are worked out from the molar mass of the structure shown. Some results are limits rather than exact numbers.

The test system of data set [1] is Leishmania panamensis. As to the kind of experiment: Antileishmanial activity against promastigote form of Leishmania panamensis MHOM/CO/87/UA140-EGFP infected in human U-937 cells assessed as parasite growth inhibition measured after 72 hrs by flow cytometer analysis. It counts as functional, organism-based. The conditions noted are these: U-937, 72 h.
Data set [2] has as its system Leishmania braziliensis. Nature of the data set: Antileishmanial activity against promastigote form of Leishmania braziliensis MHOM/CO/88/301-EGFP infected in human U-937 cells assessed as parasite growth inhibition measured after 72 hrs by flow cytometer analysis. It counts as functional, organism-based. The conditions noted are these: U-937, 72 h. Background: In flow cytometry, cells or beads pass a laser one at a time.

Data set [3] relates to Leishmania panamensis. As to the kind of experiment: Antileishmanial activity against Leishmania panamensis MHOM/CO/87/UA140-EGFP intracellular amastigotes infected in U-937 cells assessed as parasite growth inhibition measured after 72 hrs by flow cytometry analysis. It counts as functional, organism-based. The note with it: U-937, 72 h.
The subject of a further data set is U-937. Nature of the data set: Cytotoxicity against human U-937 cells assessed as reduction in cell viability measured after 72 hrs by MTT assay. Format: functional. The conditions noted are these: read-out: LC50 (the source's name). In general terms: Tetrazolium assays rely on reduction of a dye to a coloured formazan, in cell work by metabolically active cells.

A short description of data set [4]: Selectivity index, ratio of CC50 for cytotoxicity against human THP1 cells to IC50 for antileishmanial activity against promastigote form of Leishmania donovani. It counts as toxicity, cell-based. The note with it: read-out: Ratio CC50/IC50.
Data set [5] deals with Leishmania donovani. Nature of the data set: Antileishmanial activity against promastigote form of Leishmania donovani assessed as inhibition of promastigote growth incubated for 48 hrs by Alamar blue assay. Format: functional, organism-based.
For data set [6], the system named is Leishmania mexicana. As to the kind of experiment: Inhibition of recombinant Leishmania mexicana CPB2.8 delta CTE at 20 uM.
The test system of data set [7] is Leishmania donovani. Nature of the data set: Antileishmanial activity against promastigote form of wild-type Leishmania donovani MHOM/80/IN/Dd8 assessed as inhibition of parasite growth incubated for 48 hrs by MTT assay. Format: functional, organism-based. The note with it: MHOM/80/IN/Dd8, 48 h.
Data set [8] is described as follows: Cytotoxicity against mouse J774.A1 cells assessed as reduction in cell viability incubated for 48 hrs by MTT assay. Format: toxicity, cell-based.
The nature of data set [9]: Cytotoxicity against BALB/c mouse peritoneal macrophages assessed as reduction in cell viability measured after 48 hrs by luminescence based CellTiter-Glo assay. Format: toxicity, Peritoneal macrophage. A general note: Cellular ATP, detected with luciferase, serves as a proxy for viable cell number.
For data set [10], the system named is Leishmania infantum. As to the kind of experiment: Antileishmanial activity against promastigote form of Leishmania infantum BH 46 assessed as parasite growth inhibition measured after 48 hrs by Celltiter-Glo assay. Format: functional, organism-based. The conditions noted are these: BH 46, 48 h.
Data set [11] has as its system Leishmania donovani. Nature of the data set: Antileishmanial activity against promastigote form of Leishmania donovani MHOM/IN/83/AG83 assessed as inhibition of promastigote growth incubated for 48 hrs by MTT reduction assay. The conditions noted are these: MHOM/IN/83/AG83, 48 h. It counts as functional, organism-based.
Data set [12] concerns Leishmania donovani. Nature of the data set: Antileishmanial activity against Leishmania donovani MHOM/IN/83/AG83 intracellular amastigotes infected in mouse RAW264.7 cells assessed as parasite growth inhibition incubated for 48 hrs by Giemsa staining based microscopic analysis. Format: functional, organism-based. The conditions noted are these: MHOM/IN/83/AG83, RAW264.7, 48 h.

Data set [13] concerns Leishmania major. Nature of the data set: Antileishmanial activity against Leishmania major axenic amastigotes assessed as parasite growth inhibition by Alamar blue assay. It counts as functional, organism-based.
For data set [14], the system named is Leishmania panamensis. As to the kind of experiment: Antileishmanial activity against Leishmania panamensis MHOM/CO/87/UA140pIR-GFP intracellular amastigotes infected in human U-937 cells assessed as parasite growth inhibition measured after 72 hrs by flow cytometry analysis. The note with it: U-937, 72 h. It counts as functional, organism-based.
Data set [15] has as its system Leishmania braziliensis. Nature of the data set: Antileishmanial activity against promastigote form of Leishmania braziliensis MHOM/BR/75/M2904 promastigotes assessed as parasite growth inhibition incubated for 48 hrs by resazurin assay. It counts as functional, organism-based. The conditions noted are these: MHOM/BR/75/M2904, 48 h.
The subject of data set [16] is Mycobacterium tuberculosis. Nature of the data set: Antimycobacterial activity against Mycobacterium tuberculosis H37Rv ATCC 27294 assessed as inhibition of bacterial growth and measured at 7 to 14 day by broth microdilution assay. Format: functional. The conditions noted are these: time 7-14 day.
For data set [17], the system named is Leishmania major. Nature of the data set: Antileishmanial activity against Leishmania major (MHOM/IR/-173) promastigotes assessed as inhibition of parasite growth incubated for 72 hrs by alamar blue staining based analysis. It counts as functional, organism-based. The note with it: MHOM/IR/-173, 72 h.
Another data set concerns Trypanosoma cruzi. As to the kind of experiment: Antitrypanosomal activity against Trypanosoma cruzi Tulahuen intracellular amastigotes transfected with beta-galactosidase infected in human U-937 cells assessed as viability of intracellular amastigotes measured after 72 hrs by spectrophotometry. Format: functional, organism-based. The conditions noted are these: U-937, 72 h.

The subject of data set [18] is Leishmania infantum. Nature of the data set: Antileishmanial activity against promastigote form of Leishmania infantum MHOM/BR/70/BH46 promastigote assessed as parasite growth inhibition incubated for 72 hrs by Neubauer chamber analysis. Format: functional, organism-based. The note with it: MHOM/BR/70/BH46, 72 h.
Data set [19] concerns Leishmania major. As to the kind of experiment: Antileishmanial activity against Leishmania major JISH118 promastigote infected in human THP-1 cells assessed as parasite growth inhibition measured after 48 hrs by Giemsa staining based analysis. It counts as functional, organism-based. The note with it: JISH118, THP-1, 48 h.
The subject of data set [20] is Leishmania mexicana. Nature of the data set: Antileishmanial activity against mammalian stage Leishmania mexicana MNYC/BZ/62/M379 axenic amastigotes assessed as inhibition of […] incubated for 24 hrs by alamar blue assay. It counts as functional. The note with it: read-out: ED50 (the source's name).
For data set [21], the system named is Leishmania amazonensis. Nature of the data set: Antileishmanial activity against promastigote form of Leishmania amazonensis IFLA/BR/1967/PH8 assessed as parasite growth inhibition incubated for 72 hrs by MTT assay. It counts as functional, organism-based. The note with it: IFLA/BR/1967/PH8, 72 h.
The test system of data set [22] is Leishmania infantum. Nature of the data set: Antileishmanial activity against Leishmania infantum MHOM/MA/67/ITMAP263 intracellular amastigotes infected in primary peritoneal mouse macrophages assessed as inhibition of parasite growth by cell based assay. It counts as functional, organism-based. The note with it: MHOM/MA/67/ITMAP263, Peritoneal macrophage.
Data set [23] relates to Leishmania amazonensis. As to the kind of experiment: Antileishmanial activity against promastigote form of Leishmania amazonensis (MHOM/BR/71973/M2269) assessed as parasite growth inhibition measured after 72 hrs by Neubauer counting chamber based analysis. It counts as functional, organism-based. The note with it: MHOM/BR/71973/M2269, 72 h.
Data set [24] deals with Leishmania amazonensis. Nature of the data set: Antileishmanial activity against Leishmania amazonensis (MHOM/BR/71973/M2269) intracellular amastigotes infected in mouse peritoneal macrophages assessed as parasite growth inhibition incubated for 24 hrs by Giemsa staining based light microscopy analysis. Format: functional, organism-based. The conditions noted are these: MHOM/BR/71973/M2269, Peritoneal macrophage.

In the case of `O=C(N/N=C1\CCOc2ccccc21)c1ccccc1`, the results for the EC50 in the data set on Leishmania panamensis [1] and with Leishmania braziliensis [2] were 20.1 mg/L (≈ 75.5 µM) and 12.1 mg/L (≈ 45.4 µM), respectively.

`O=C1C=C(c2ccc(C(F)(F)F)cc2)S(=O)(=O)c2ccc(F)cc21`: the EC50 in the data set with Leishmania panamensis [3] worked out at 3.24 µM. The CC50 in the data set on U-937 is 561 µM.

`Cc1cc(N2C(=O)C(Cl)=C(Cl)C2=O)ccc1[N+](=O)[O-]`: in data set [4], the selectivity ratio is above 781. The IC50 in the data set on Leishmania donovani [5] is below 0.0128 mg/L.

Consider `COC(=O)c1ccc(NC(=O)CSc2nc3ccccc3n2S(=O)(=O)c2cc(C)cc(C)c2)cc1`, for which the inhibition with Leishmania mexicana [6] is 97%.

Regarding `CN(C)CCCn1cc(/C=C/C(=O)c2ccc(Cl)cc2)c2ccccc21`, the IC50 in the data set on Leishmania donovani [7] turned out to be 21.5 µM.

With `O=C1c2ccccc2C(=O)N1CCn1cc(-c2ccccc2)nn1`, the CC50 at 48 h in [8] is above 500 µM.

Consider `COc1ccc(-c2csc(N/N=C/c3ccccn3)n2)cc1`, for which, in [9], the CC50 at 48 h is 1.35 µM. Besides, the IC50 in the data set on Leishmania infantum [10] was found to be 2.78 µM.

For the compound `COc1ccc(-c2nnc(/C=C/c3cn(-c4ccccc4)nc3-c3ccccc3)o2)cc1OC`, the IC50 in the data set on Leishmania donovani [11] amounted to 40.1 mg/L (≈ 89 µM); in the data set with Leishmania donovani [12], 66.8 mg/L (≈ 148 µM).

On to `COc1cc(-c2nnc(/C=C/c3cn(-c4ccccc4)nc3-c3ccccc3)o2)cc(OC)c1OC`, for which the figures for the 50% inhibitory concentration (IC50) with Leishmania donovani [11] and in the data set with Leishmania donovani [12] were 33.3 mg/L (≈ 69.3 µM) and 44.2 mg/L (≈ 92 µM), respectively.

As to `COc1ccc(-c2nn(-c3ccccc3)cc2/C=N/N=C/c2c(C)nn(-c3ccccc3)c2Cl)cc1`, in the data set with Leishmania major [13], the half-inhibitory concentration (IC50) turned out to be 1.45 µM.

As to `O=c1ccoc2cc(OCCCCOc3cccc4ccccc34)ccc12`, in the data set with Leishmania panamensis [14], the EC50 worked out at 6.11 mg/L.

Consider `CC(C)=CCC1=C(OC(=O)CCc2cn(-c3ccc(C)cc3)nn2)C(=O)c2ccccc2C1=O`, for which the IC50 in the data set with Leishmania braziliensis [15] came to 15.9 µM.

Turning to `OCc1cn(-c2cc(O)ccc2O)nn1`, the MIC90 in data set [16] worked out at 16 µM (≈ 3.32 µg/mL). For the same compound, in the data set on Leishmania major [17], the IC50 came out at 23 µM.

As for `CCCCC(CCCCCCC[n+]1ccn(C)c1)Oc1ccc(C(=O)/C=C/c2ccco2)cc1` (centres undefined), the EC50 in the data set with Leishmania panamensis [14] was determined as 2.12 µM; in the data set with Trypanosoma cruzi it was 0.72 µM.

Take `CCc1ccc(NC(=S)N/N=C/c2c[nH]c3c(C)cc(Br)cc23)cc1`: in the data set with Leishmania infantum [18], the IC50 amounted to 4.36 µM.

In the case of `c1cncc(Nc2nnc(-c3ccc(C(c4c[nH]c5ccccc45)c4c[nH]c5ccccc45)cc3)s2)c1`, in the data set with Leishmania major [19], the half-inhibitory concentration (IC50) amounted to 0.7 µM.

With `COc1ccc(-c2nn(-c3ccccc3)cc2/C=C/C(=O)c2ccc([N+](=O)[O-])cc2)cc1`, the IC50 in the data set on Leishmania major [13] stood at 2.3 µM.

Regarding `COC(=O)[C@]12CCC(C)(C)C[C@H]1C1=CC[C@@H]3[C@@]4(C)CC[C@@H]5O[C@H](c6ccccc6C(=O)O)OC[C@@]5(C)[C@@H]4CC[C@@]3(C)[C@]1(C)CC2`, the EC50 in the data set with Leishmania mexicana [20] worked out at 5 µM.

Regarding `O=C(CC[Se]c1ccnc2cc(Cl)ccc12)Nc1ccc([N+](=O)[O-])cc1`, the IC50 in the data set on Leishmania amazonensis [21] was 10.8 mg/L (≈ 24.9 µM).

`Clc1ccc(COc2ccc(-c3nc4ccccc4o3)cc2)c(Cl)c1`: in the data set on Leishmania donovani [7], the IC50 came out at 57 µM.

As for `CCCCCCCCCCCCCCCCOP(=O)([O-])OCC[N+](C)(C)C` [MILTEFOSINE], the IC50 worked out at 24.2 µM in the data set on Leishmania donovani [7] and 4.5 µM with Leishmania infantum [22].

Turning to `CC(C)COc1ccc2c(-c3ccccc3)cc(=O)oc2c1`, the IC50 is 21.4 µM with Leishmania amazonensis [23] and 58.1 µM with Leishmania amazonensis [24].

Take `CC(C)=CC1=C(OC(=O)CCc2cn(-c3ccc(C)cc3)nn2)C(=O)c2ccccc2C1=O`: the IC50 in the data set on Leishmania braziliensis [15] was found to be 27.1 µM.

On to `Cn1cc[n+](CCCOc2ccc(C(=O)/C=C/c3ccco3)cc2)c1`, for which the EC50 in the data set with Leishmania panamensis [14] worked out at 4.65 µM.

As a reminder, the IC50 is the point on the concentration scale where inhibition reaches its midpoint. A word on the inhibition: it is the share of the control response that was lost under treatment. By MIC90 is commonly meant an inhibitory concentration at the 90% level, which refers to growth in some studies and to a panel of isolates in others.
